{"source": "patent US20140005269A1", "about": "“POLYMERIC MATRIX OF POLYMER-LIPID NANOPARTICLES AS A PHARMACEUTICAL DOSAGE FORM” (priority 2010, published 2014)", "experiment": "In vitro drug release, USP 32 apparatus II dissolution", "format": "physicochemical", "settings": "pH 6.8 (standard buffer KH2PO4/NaOH)", "procedure": "Drug release was assessed using a USP 32 apparatus II dissolution system (Erweka DT 700, Erweka GmbH, Heusenstamm, Germany). Temperature and stirring rate was at 37±0.5° C. and 50 rpm respectively while the dissolution media was 0.1N HCl, buffers pH 1.5 and 4.5. Samples were withdrawn at predetermined intervals and replaced with the same volume of fresh medium, and the quantity of L-dopa released was quantified using UV spectroscopy. In vitro drug release studies were also undertaken for E3 matrices formulated from IPBs in varying normalities of acetic acid in buffer pH 1.5 (standard buffer KCl/HCl), pH 4.5 (0.025M KH2PO4/H2PO4) and pH 6.8 (standard buffer KH2PO4/NaOH) was employed to observe the behavior of the matrices and not for drug release as the model drug L-dopa was unstable at such pH values.\nThe incorporation of polymer-lipid nanoparticles into the IPB was undertaken as described earlier via direct compression. However, the L-dopa-loaded polymer-lipid nanoparticles was incorporated instead of L-dopa alone while the in vitro drug release was assessed as described earlier.", "data": [{"smiles": "N[C@@H](Cc1ccc(O)c(O)c1)C(=O)O", "note": "[L-dopa, 3-(3,4-dihydroxyphenyl)-L-alanine]", "values": [{"measurement": "stability of the model drug in dissolution medium", "value": "unstable"}]}]}
